# Assay results reported in patent US20230210834A1, “RNA METHYLTRANSFERASE INHIBITOR, SCREENING METHOD THEREFOR, ANTI-CANCER AGENT EFFICACY ASSESSMENT MARKER, AND KIT FOR EFFECTIVELY PREDICTING FTSJ1 INHIBITOR” (National University Corporation Okayama University, priority 2019, published 2023).
# What was measured:
# [1] = test system: YAP/TAZ; experiment: Screening: YAP/TAZ activity reporter (8xGTIIC plasmid) assay in NUGC3 cells (luminescence % of DMSO); format: cell-based, human; conditions: NUGC3 cells, luminescence relative to DMSO
# [2] = test system: MGG23; experiment: Sphere-forming ability (anchorage-independent cell proliferation), MGG23; format: cell-based, human; conditions: MGG23 (low FTSJ1 expression), 1 week, 0-5000 nM; FIG. 4B
# Experimental: To verify whether the expression analysis of these gene clusters contributes to predicting the anti-cancer effect by the FTSJ1 inhibitors, the FTSJ1 gene was actually used as an example to analyze the anti-cancer effect of the FTSJ1 inhibitor PVZF2001 on human malignant brain tumor cell lines. Human malignant brain tumor cell lines MGG4, MGG8, MGG18, MGG23 were treated with stem cell medium (Neurobasal, B-27, N-2, 20 ng/mL EGF, 20 ng/mL bFGF) containing different concentrations (0 nm, 200 nM, 500 nM, 1000 NM, 2000 NM, 5000 nM) of PVZF2001 for 1 week, and anchorage-independent cell proliferation was evaluated based on sphere-forming ability.
# [3] = test system: 39 types of human cancer cell lines (JFCR39); experiment: Cell line panel (JFCR39) cell proliferation, sulforhodamine B, GI50; format: cell-based
# Experimental: In order to extract genes that prescribe the sensitivity and resistance with respect to the FTSJ1 inhibitors, PVZF2001 was used to proceed with the analysis with a cell line panel (JFCR39). […] The GI50 value is defined, based on the number of cells before drug exposure, as a concentration at which the increase is inhibited by 50% by drug treatment, with the increase in a sample cultured for 48 hours without drug treatment (negative control) taken as 100%. In order to extract the target gene clusters, a COMPARE analysis was first performed using gene expression and the Log GI50 values in all of the cell lines. The gene clusters of SEQ ID NOs: 14 to 28 were then identified as FTSJ1 inhibitor resistance-related genetic markers, while the gene clusters of SEQ ID NOs: 34 to 47 were identified as FTSJ1 inhibitor sensitive-related genetic markers. […] The gene clusters of SEQ ID NOs: 29 to 33 were then identified as FTSJ1 inhibitor resistance-related genetic markers, while the gene clusters of SEQ ID NOs: 48 to 56 were identified as FTSJ1 inhibitor sensitive-related genetic markers. Using these genetic markers, a database of gene expression information (TCGA) obtained from patient samples was analyzed. […] That is, the results reveal that the FTSJ1 gene expression level itself also represents sensitivity and resistance with respect to the FTSJ1 inhibitors (SEQ ID NO: 57).
structure (smiles),measurement,setting,value
CC(C)c1cc(C(C)C)c(S(=O)(=O)CC2CC(C)(C)CC(C)(C)C2)c(C(C)C)c1 [PVZF2001],8×GTIIC,[1]; 5 μM,40.38%
same,8×GTIIC,[1]; 10 μM,20.02%
same,anchorage-independent cell proliferation (sphere-forming ability),[2],showed cell proliferation even when treated at a concentration as high as 2000 NM
same,"sensitivity / resistance of cell line (Log GI50, FIG. 4A)","[3]; DMS114, 48 hours",high sensitivity
same,"sensitivity / resistance of cell line (Log GI50, FIG. 4A)","[3]; NCI-H23, 48 hours",high resistance
same,"sensitivity / resistance of cell line (Log GI50, FIG. 4A)","[3]; NCI-H522, 48 hours",high sensitivity
same,"sensitivity / resistance of cell line (Log GI50, FIG. 4A)","[3]; SF-539, 48 hours",high sensitivity
same,"sensitivity / resistance of cell line (Log GI50, FIG. 4A)","[3]; SNB-75, 48 hours",high sensitivity
same,"sensitivity / resistance of cell line (Log GI50, FIG. 4A)","[3]; SNB-78, 48 hours",high resistance
same,"sensitivity / resistance of cell line (Log GI50, FIG. 4A)","[3]; U251, 48 hours",high sensitivity
